Experimental findings from US10392379B2, “Hepatitis B core protein modulators” (Assembly Biosciences, Inc., priority 2015, dated 2019) are described below.

One series concerns HBV. The series is described as follows: Viral load production in AD38 cells by quantitative PCR of the core sequence. To be noted: Hepatitis B virus, 144 h, 10 μM compound, 6 days, supernatant qPCR, relative to DMSO control, read-out: AD38 Viral Load (%) (VL with cmpd/VL in DMSO control) at 10 μM. It counts as cell-based. The protocol: (§1) AD38 cells were then re-suspended with 10 mL of Treatment Medium and counted. Wells of a collagen coated 96-well NUNC microtiter plate were seeded at 50,000/well in 180 μL of Treatment Medium, and 20 μL of in treatment media with either 10% DMSO (Control) or a 10× solution of compound in 10% DMSO was added. Plates were incubated for 6 days at 37° C.
Viral load production was assayed by quantitative PCR of the core sequence. […] The PCR mixture was incubated at 45° C. for 5 minutes, then 95° C. for 10 min, followed by 40 cycles of 10 seconds at 95° C. and 20 seconds at 60° C. Viral load was quantitated against known standards by using ViiA™ 7 Software. Viral load in the supernatant from wells with treated cells were compared against viral load in supernatant from DMSO control wells (≥3 per plate).
On the technique in general: In qPCR the cycle at which signal appears reflects the starting amount.

The test system of the next series is AD38 cells. The series is described as follows: Viability of AD38 cells (Promega CellTiter-Glo). It is filed as cell-based. Particulars: 10 μM compound, 6 days, DMSO controls = 100%. The protocol: as §1
At the end of compound treatment period cell viability was assessed using a Promega CellTiter-Glo protocol. All supernatant was removed the previously treated 96-well microtiter plate, and 50 μL Tetracycline-free treatment medium (DMEM/F12 (1:1), 1× Pen/step (cat#: 30-002-CL, Mediatech, Inc), with 2% FBS, Tet-system approved (cat#: 631106, Clontech), and 1% DMSO was added back to each well. Another 50 μL of CellTiter-Glo reagent solution (Promega, G7573) was then added at room temperature and the contents mixed for 2 minutes on an orbital shaker to induce cell lysis. This was followed by incubation at room temperature for 10 minutes to stabilize the luminescent signal. The luminescence was recorded for 0.2 seconds per well on a Tecan multimode platereader (Infinite M1000 pro). The luminescent signal from each well was normalized against that of untreated (DMSO) control wells. All results in Table 3 were reported with percent viability (with controls being 100%).
In general terms: In ATP-based viability assays light output follows the ATP content of the culture.

`Cc1cc2c(cc1C(=O)NCc1cncnc1)NC(=O)c1ccccc1S2` [Compound 495]: the activity at 10 µM in the series with HBV was 23.1%. Further, the “AD38 Viability Normalized Result (cmpd/DMSO %) at 10 μM” value in the series on AD38 cells turned out to be 96%.
Taken in the same sequence, the figures for `Cc1cc2c(cc1C(=O)NCc1cccnc1)NC(=O)c1ccccc1S2` [Compound 497] were 38.7% and 97%.
Taken in the same sequence, the figures for `O=C(NCc1cncnc1)c1ccc2c(c1)NC(=O)c1ccccc1N2` [Compound 504] were 62.9% and 101%.
The corresponding values for `O=C(NCCc1ccccn1)c1ccc2c(c1)NC(=O)c1ccccc1N2` [Compound 505] are 48.2% and 103%.
In the case of `O=C(NCCc1cccnc1)c1ccc2c(c1)NC(=O)c1ccccc1N2` [Compound 506], in the series with HBV, the activity at 10 µM turned out to be 31.6%. Moreover, the “AD38 Viability Normalized Result (cmpd/DMSO %) at 10 μM” value with AD38 cells stood at 100%.
For `O=C(NCc1cccnc1)c1ccc2c(c1)NC(=O)c1ccccc1N2` [Compound 507], the activity at 10 µM with HBV is 51.9%. The “AD38 Viability Normalized Result (cmpd/DMSO %) at 10 μM” value in the series with AD38 cells is 103%.
Taken in the same sequence, the figures for `O=C(NCc1cncnc1)c1ccc2c(c1)NC(=O)c1cc(Cl)ccc1S2` [Compound 539] were 0.2% and 0%.
Taken in the same sequence, the figures for `O=C(NCc1cccnc1)c1ccc2c(c1)NC(=O)c1cc(Cl)ccc1S2` [Compound 540] were 0.6% and 52%.
The corresponding values for `O=C(NCc1cncnc1)c1ccc2c(c1)NC(=O)c1ccc(Cl)cc1S2` [Compound 542] are 1.6% and 106%.
As to `O=C(NCc1cccnc1)c1ccc2c(c1)NC(=O)c1ccc(Cl)cc1S2` [Compound 543], the activity at 10 µM in the series with HBV was 1.2%. In addition, in the series with AD38 cells, the “AD38 Viability Normalized Result (cmpd/DMSO %) at 10 μM” value turned out to be 24%.
The corresponding values for `CC1c2ccc(C(=O)NCc3cncnc3)cc2NC(=O)c2ccccc21` (stereo not drawn) [Compound 545] are 1.4% and 95%.
Taken in the same sequence, the figures for `CC1c2ccc(C(=O)NCc3cccnc3)cc2NC(=O)c2ccccc21` (stereo not drawn) [Compound 547] were 1.5% and 99%.
Taken in the same sequence, the figures for `O=C(NCc1nnc(-c2ccc(O)cc2)s1)c1ccc2c(c1)NC(=O)c1ccccc1O2` [Compound 739] were 62.2% and 108%.
For `O=C(NCc1ccc(-c2ccc(O)cc2)nc1)c1ccc2c(c1)NC(=O)c1ccccc1S2(=O)=O` [Compound 778], the activity at 10 µM in the series with HBV amounted to 3.2%. Moreover, in the series with AD38 cells, the “AD38 Viability Normalized Result (cmpd/DMSO %) at 10 μM” value was 104%.
The corresponding values for `O=C(NCc1ccc(-c2ccc3[nH]ccc3c2)nc1)c1ccc2c(c1)NC(=O)c1ccccc1S2(=O)=O` [Compound 779] are 0.5% and 87%.
The corresponding values for `O=C(NCc1ccc(-c2ccc3[nH]ncc3c2)nc1)c1ccc2c(c1)NC(=O)c1ccccc1S2(=O)=O` [Compound 780] are 1.8% and 106%.
The corresponding values for `O=C(NCc1ccc(-c2ccc3[nH]cnc3c2)nc1)c1ccc2c(c1)NC(=O)c1ccccc1S2(=O)=O` [Compound 781] are 7.3% and 102%.
For `Nc1ncc(-c2ccc(CNC(=O)c3ccc4c(c3)NC(=O)c3ccccc3S4(=O)=O)cn2)cn1` [Compound 782], in the series with HBV, the activity at 10 µM turned out to be 25.4%. Moreover, the “AD38 Viability Normalized Result (cmpd/DMSO %) at 10 μM” value with AD38 cells was 108%.
Taken in the same sequence, the figures for `O=C(NCc1ccc(-c2ccc(O)cc2Cl)nc1)c1ccc2c(c1)NC(=O)c1ccccc1S2(=O)=O` [Compound 783] were 6.3% and 105%.
`O=C(NCc1ccc(-c2ccc(O)c(Cl)c2)nc1)c1ccc2c(c1)NC(=O)c1ccccc1S2(=O)=O` [Compound 784]: the activity at 10 µM in the series with HBV came out at 137%. Also, the “AD38 Viability Normalized Result (cmpd/DMSO %) at 10 μM” value in the series with AD38 cells amounted to 103%.
In the case of `O=C(NCc1ccc(-c2ccc(O)cc2F)nc1)c1ccc2c(c1)NC(=O)c1ccccc1S2(=O)=O` [Compound 785], the activity at 10 µM in the series on HBV stood at 2.1%. The “AD38 Viability Normalized Result (cmpd/DMSO %) at 10 μM” value in the series on AD38 cells is 94%.
Take `O=C(NCc1ccc(-c2ccc(O)c(F)c2)nc1)c1ccc2c(c1)NC(=O)c1ccccc1S2(=O)=O` [Compound 786]: the activity at 10 µM in the series with HBV stood at 5%. The “AD38 Viability Normalized Result (cmpd/DMSO %) at 10 μM” value in the series on AD38 cells was 105%.
The corresponding values for `O=C(NCc1ccc(-c2cc(F)c(O)c(F)c2)nc1)c1ccc2c(c1)NC(=O)c1ccccc1S2(=O)=O` [Compound 787] are 15.5% and 100%.
Taken in the same sequence, the figures for `O=C(NCc1cnc(-c2ccc(O)cc2)nc1)c1ccc2c(c1)NC(=O)c1ccccc1S2(=O)=O` [Compound 788] were 1.9% and 111%.
The corresponding values for `O=C(NCc1cnc(-c2ccc3[nH]ccc3c2)nc1)c1ccc2c(c1)NC(=O)c1ccccc1S2(=O)=O` [Compound 789] are 0.4% and 108%.
As for `O=C(NCc1cnc(-c2ccc3[nH]ncc3c2)nc1)c1ccc2c(c1)NC(=O)c1ccccc1S2(=O)=O` [Compound 790], the activity at 10 µM with HBV stood at 1.7%. Also, the “AD38 Viability Normalized Result (cmpd/DMSO %) at 10 μM” value in the series with AD38 cells is reported as 103%.
The corresponding values for `O=C(NCc1cnc(-c2ccc3[nH]cnc3c2)nc1)c1ccc2c(c1)NC(=O)c1ccccc1S2(=O)=O` [Compound 791] are 2.2% and 100%.
The corresponding values for `Nc1ncc(-c2ncc(CNC(=O)c3ccc4c(c3)NC(=O)c3ccccc3S4(=O)=O)cn2)cn1` [Compound 792] are 23.1% and 105%.
The corresponding values for `O=C(NCc1cnc(-c2ccc(O)cc2Cl)nc1)c1ccc2c(c1)NC(=O)c1ccccc1S2(=O)=O` [Compound 793] are 3.5% and 103%.
For `O=C(NCc1cnc(-c2ccc(O)c(Cl)c2)nc1)c1ccc2c(c1)NC(=O)c1ccccc1S2(=O)=O` [Compound 794], the activity at 10 µM in the series with HBV stood at 1.3%. Also, the “AD38 Viability Normalized Result (cmpd/DMSO %) at 10 μM” value in the series on AD38 cells was found to be 104%.
With `O=C(NCc1cnc(-c2ccc(O)cc2F)nc1)c1ccc2c(c1)NC(=O)c1ccccc1S2(=O)=O` [Compound 795], the activity at 10 µM with HBV is 6.4%. In the series on AD38 cells, the “AD38 Viability Normalized Result (cmpd/DMSO %) at 10 μM” value is on record as 106%.
Taken in the same sequence, the figures for `O=C(NCc1cnc(-c2ccc(O)c(F)c2)nc1)c1ccc2c(c1)NC(=O)c1ccccc1S2(=O)=O` [Compound 796] were 1.4% and 111%.
Taken in the same sequence, the figures for `O=C(NCc1nnc(-c2ccc(O)cc2)s1)c1ccc2c(c1)NC(=O)c1ccccc1S2(=O)=O` [Compound 807] were 0.9% and 96%.
